Experimental data: PubChem BioAssay (NCI)
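Each compound was tested at five concentrations against cells in 96-well plates for 48 hours. TGI is the concentration that stops growth completely.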

Columns and labels:
Assay in all cases: NCI anticancer screen, dose series, 48 h
IGROV1 ovarian = system: IGROV1 ovarian
MDA-MB-435 = system: MDA-MB-435
EKVX NSCLC = system: EKVX NSCLC
HCT-116 colon = system: HCT-116 colon
SK-MEL-5 melanoma = system: SK-MEL-5 melanoma
PC-3 prostate = system: PC-3 prostate
TK-10 renal = system: TK-10 renal
MDA-MB-231 breast = system: MDA-MB-231 breast
K-562 leukemia = system: K-562 leukemia
HS 578T breast = system: HS 578T breast

SMILES | TGI (IGROV1 ovarian) [µM] | TGI (MDA-MB-435) [µM] | TGI (EKVX NSCLC) [µM] | TGI (HCT-116 colon) [µM] | TGI (SK-MEL-5 melanoma) [µM] | TGI (PC-3 prostate) [µM] | TGI (TK-10 renal) [µM] | TGI (MDA-MB-231 breast) [µM] | TGI (K-562 leukemia) [µM] | TGI (HS 578T breast) [µM]
c1ccc2nn(C3CCCO3)nc2c1 (stereo not given) | > 100 | > 100 | > 100 | > 100 | > 100 | > 100 | > 100 | > 100 | > 100 | > 100
CC(C)COP(C)(=O)C(N)(C(F)(F)F)C(F)(F)F (stereo not given) | > 100 | > 100 | > 100 | > 100 | > 100 | > 100 | > 100 | > 100 | > 100 | > 100
O=C(/C=C/c1ccc(O)c(O)c1)NC(COC(=O)/C=C/c1ccc(O)c(O)c1)C(=O)O (stereo not given) | > 100 | > 100 | > 100 | > 100 | > 100 | > 100 | > 100 | > 100 | > 100 | > 100
O=C1Nc2ccccc2/C1=C\c1c(-c2ccccc2)nc2n1CCS2 | > 100 | 39.8 | 52 | 49.2 | 30.2 | 48.3 | 34.3 | 47 | > 100 | 75.2
O=C1CCN2C(=N1)Sc1ccccc12 | > 100 | > 100 | > 100 | > 100 | > 100 | > 100 | > 100 | > 100 | > 100 | > 100
CCOC(=O)C1(C#N)C(C#N)(C#N)C1(C#N)C#N | > 100 | > 100 | > 100 | > 100 | > 100 | > 100 | > 100 | > 100 | > 100 | > 100
CC(=O)O[C@H]1CC[C@@]2(C)C(=CC[C@@H]3[C@@H]2CC[C@](C)(c2nnc(C)o2)[C@H]3CC#N)C1 | > 100 | > 100 | > 100 | > 100 | > 100 | > 100 | > 100 | > 100 | > 100 | > 100
COC(=O)[C@H](COC(C)(C)C)NC(=O)N[C@H](C)c1ccccc1 | > 100 | > 100 | > 100 | > 100 | > 100 | > 100 | > 100 | > 100 | > 100 | > 100
O=C(c1ccccc1)C(Nc1ccc2ccccc2c1)c1ccccc1 (stereo not given) | > 100 | > 48 | > 100 | > 100 | 36 | 98.7 | > 100 | > 100 | > 87.6 | > 100
O=C(CCc1ccc(O)c(O)c1)NCCc1cc(O)c(O)c(O)c1 | > 100 | 31.8 | 53 | 33 | 66.2 | > 100 | > 100 | 28.5 | 41.4 | > 100
Cc1cccc2c1c(=O)c1c(O)cc3c(c1n2C)C=CC(C)(C)O3 | > 100 | > 100 | > 100 | > 100 | > 100 | > 100 | > 100 | > 100 | > 100 | > 100
O=C1CCCCC1C(O)(C(F)(F)F)C(F)(F)Cl (stereo not given) | > 10 | > 10 | > 10 | > 10 | > 10 | > 10 | > 10 | > 10 | > 10 | > 10
CCCCCCCC(CC(=O)NC(CO)C(=O)NC(CO)CC(C)C)OC(=O)CC(CCCCCCC)OC(=O)CC(CCCCCCC)OC1OC(C)C(O)C(OC2OC(C)C(O)C(O)C2O)C1O (stereo not given) | 26.4 | 19.5 | 41.8 | 20.8 | 21.3 | 25.3 | 30.8 | 26.6 | 25.7 | 22.7
C/C(=C\CNc1ncnc2c1ncn2CCC(=O)OC(C)(C)C)CO | > 100 | > 100 | > 100 | > 100 | > 100 | > 100 | > 100 | > 100 | > 100 | > 100
CCN(CC)C(=S)N/N=C/c1cc(OC)ccc1O | > 100 | > 100 | > 100 | > 100 | 70.5 | > 100 | > 100 | > 100 | > 100 | > 100
CCOC(=O)C1=CNC(C(=O)OCC)C1c1cccn1-c1ccccc1 (stereo not given) | > 100 | 57.6 | > 100 | 58.6 | 31.5 | 71.3 | > 100 | 40.1 | > 100 | > 100
N#CCC1C2CC3C(C2=O)C13 (stereo not given) | > 100 | > 100 | > 100 | > 100 | > 100 | > 100 | > 100 | > 100 | > 100 | > 100

SMILES | TGI (IGROV1 ovarian) [µM] | TGI (MDA-MB-435) [µM] | TGI (EKVX NSCLC) [µM] | TGI (HCT-116 colon) [µM] | TGI (SK-MEL-5 melanoma) [µM] | TGI (PC-3 prostate) [µM] | TGI (TK-10 renal) [µM] | TGI (MDA-MB-231 breast) [µM] | TGI (K-562 leukemia) [µM] | TGI (HS 578T breast) [µM]
CC1(C)SCc2nc3ccccc3n21 | > 100 | > 100 | > 100 | > 100 | > 100 | > 100 | > 100 | > 100 | > 100 | > 100
CC(Cc1cccc2c1Nc1ccccc1S2)N(C)CCO (stereo not given) | > 100 | > 100 | > 100 | > 100 | > 100 | > 100 | > 100 | > 100 | > 100 | > 100
CCOC(=O)Nc1n[nH]nc1Cl | > 100 | > 100 | > 100 | > 100 | > 100 | > 100 | > 100 | > 100 | > 100 | > 100
COc1cc2cc3c4cc(OC)c(OC)cc4cc[n+]3c(C)c2cc1OC | > 100 | > 100 | > 100 | > 100 | > 100 | > 100 | > 100 | > 100 | > 100 | > 100
CC(=O)N=c1ccc2nc(N)nn(O)c-2c1 | > 100 | > 100 | > 100 | > 100 | > 100 | > 100 | > 100 | > 100 | > 100 | > 100
NC(Cc1ccccc1)c1nn[nH]n1 (stereo not given) | > 100 | > 100 | > 100 | > 100 | > 100 | > 100 | > 100 | > 100 | > 100 | > 100
Cc1c2ccccc2c(C2C3C(=O)N(c4cccc5ccccc45)C(=O)C3ON2Cc2ccc(CC(N)=O)cc2)c2ccccc12 (stereo not given) | > 50 | > 50 | 48.9 | > 50 | > 50 | > 50 | > 50 | > 50 | > 50 | > 50
O=C(O)C1=CN(c2ccncc2)C(c2ccco2)=CC1c1ccccc1[N+](=O)[O-] (stereo not given) | 5.98 | > 57.6 | 23.8 | 3.66 | > 49.6 | 28 | 15.9 | 30.6 | > 100 | 62.4
c1ccc(-c2cc(-c3ccncc3)cc(-c3ccncc3)n2)cc1 | > 100 | > 100 | > 100 | > 100 | > 100 | > 100 | > 100 | > 100 | > 100 | > 100
CCOC(=O)c1cn(CC)c2ccc3ccsc3c2c1=O | > 100 | > 100 | > 100 | > 100 | > 100 | > 100 | > 100 | > 100 | > 100 | > 100
O=C(Oc1c(Br)cc(Br)cc1C(=O)Oc1ccccc1)C(=O)Oc1c(Br)cc(Br)cc1C(=O)Oc1ccccc1 | > 100 | > 100 | > 100 | 31.6 | 31 | 69.6 | > 100 | 30.6 | 55.7 | > 100
CSC1=C(C#N)C(=O)N(c2ccc(C)cc2)C(=O)C1C#N (stereo not given) | > 100 | > 100 | > 100 | > 100 | > 100 | > 100 | > 100 | > 100 | > 100 | > 100
COc1ccc2c(c1)-c1nc(=O)n(CCCN(C)C)c3ccc([N+](=O)[O-])c(c13)N2 | 12.3 | 32.2 | 6.45 | 12.8 | 4.4 | 20.9 | 7.17 | 2.09 | 0.235 | 4.99
C#C[C@]1(O)[C@@H](CO)O[C@@H](n2ccc(N)nc2=O)[C@@H]1O | > 38.1 | 0.219 | > 19.9 | > 33.9 | 0.371 | 0.762 | 2.65 | > 100 | > 100 | > 40
COc1ccc(-n2c(Cn3nnc(-c4cccnc4)n3)nn(C3OC(COC(=O)c4ccccc4)C(OC(=O)c4ccccc4)C3OC(=O)c3ccccc3)c2=S)cc1 (stereo not given) | > 100 | > 100 | > 100 | > 100 | > 100 | > 100 | > 100 | > 100 | > 100 | > 100
Cc1cc(C)c(S(=O)(=O)N(CCCN)OCCON(CCCN)S(=O)(=O)c2c(C)cc(C)cc2C)c(C)c1 | 4.67 | > 23.6 | 20.6 | 5.1 | > 100 | 4.02 | 42.8 | > 23.4 | > 100 | 30.3
Cc1[nH]c2nc3c(ncn3COCCO)c(=O)n2c1C(c1ccccc1)(c1ccccc1)c1ccccc1 | 28.4 | 24.3 | 41.8 | 29.3 | 29.4 | 26 | 30.8 | 28.3 | 27.3 | > 91.2
